The text below walks through data of ChEMBL document CHEMBL2321750, “Structural permutation of potent cytotoxin, polytheonamide B: discovery of cytotoxic Peptide with altered activity” (ACS Med Chem Lett, 2013).

Each structure is given as a SMILES string.

The test concerns P388. The test is described as follows: Cytotoxicity against mouse P388 cells assessed as cell viability after 92 hrs by XTT assay. Conditions: P388, 92 h. The class given is functional, cell-based.
As a reminder, the IC50 is the concentration at which inhibition is half-maximal. Take `CC[C@H](C)[C@H](NC(=O)[C@@H](CC(=O)NC)NC(=O)CNC(=O)[C@H](NC(=O)[C@@H](NC(=O)[C@@H](CC(=O)NC)NC(=O)[C@@H](NC(=O)[C@@H](CC(=O)NC)NC(=O)CNC(=O)CNC(=O)[C@H](C)NC(=O)[C@H](NC(=O)[C@H](CCC(=O)NC)NC(=O)[C@@H](CC(=O)NC)NC(=O)[C@@H](NC(=O)CNC(=O)[C@H](C)NC(=O)CNC(=O)[C@@H](NC(=O)[C@@H](CC(=O)NC)NC(=O)[C@H](C)N)C(C)(C)O)C(C)(C)C)C(C)(C)O)[C@@H](C)CC)C(C)(C)C)C(C)(C)O)C(=O)N[C@H](CC(=O)NC)C(=O)N[C@H](C(=O)N[C@H](CC(=O)NC)C(=O)N[C@@H](C)C(=O)N[C@H](CC(=O)NC)C(=O)N[C@H](C(=O)N[C@H](CO)C(=O)N[C@H](C(=O)N[C@H](CC(N)=O)C(=O)N[C@@H](Cc1cn(CCNS(=O)(=O)c2cccc3c(N(C)C)cccc23)nn1)C(=O)N[C@H](CC(N)=O)C(=O)N[C@@H](CCC(N)=O)C(=O)N[C@@H](C(=O)N[C@H](C(=O)O)[C@@H](C)O)[C@H](C)O)C(C)C)C(C)C)C(C)C`: the IC50 was 100 nM.

Take `CC[C@H](C)[C@H](NC(=O)[C@@H](CC(=O)NC)NC(=O)CNC(=O)[C@H](NC(=O)[C@@H](NC(=O)[C@@H](CC(=O)NC)NC(=O)[C@@H](NC(=O)[C@@H](CC(=O)NC)NC(=O)CNC(=O)CNC(=O)[C@H](C)NC(=O)[C@H](NC(=O)[C@H](CCC(=O)NC)NC(=O)[C@@H](CC(=O)NC)NC(=O)[C@@H](NC(=O)CNC(=O)[C@H](C)NC(=O)CNC(=O)[C@@H](NC(=O)[C@@H](CC(=O)NC)NC(=O)[C@H](C)NC(=O)[C@H](N)C(C)(C)C)C(C)(C)O)C(C)(C)C)C(C)(C)O)[C@@H](C)CC)C(C)(C)C)C(C)(C)O)C(=O)N[C@H](CC(=O)NC)C(=O)N[C@H](C(=O)N[C@H](CC(=O)NC)C(=O)N[C@@H](C)C(=O)N[C@H](CC(=O)NC)C(=O)N[C@H](C(=O)N[C@H](CO)C(=O)N[C@H](C(=O)N[C@H](CC(N)=O)C(=O)N[C@@H](Cc1cn(CCNS(=O)(=O)c2cccc3c(N(C)C)cccc23)nn1)C(=O)N[C@H](CC(N)=O)C(=O)N[C@@H](CCC(N)=O)C(=O)N[C@@H](C(=O)N[C@H](C(=O)O)[C@@H](C)O)[C@H](C)O)C(C)C)C(C)C)C(C)C`: the IC50 stood at 81 nM.

For the compound `CC[C@H](C)[C@H](NC(=O)[C@@H](CC(=O)NC)NC(=O)CNC(=O)[C@H](NC(=O)[C@@H](NC(=O)[C@@H](CC(=O)NC)NC(=O)[C@@H](NC(=O)[C@@H](CC(=O)NC)NC(=O)CNC(=O)CNC(=O)[C@H](C)NC(=O)[C@H](NC(=O)[C@H](CCC(=O)NC)NC(=O)[C@@H](CC(=O)NC)NC(=O)[C@@H](NC(=O)CNC(=O)[C@H](C)NC(=O)CNC(=O)[C@@H](NC(=O)[C@@H](CC(=O)NC)NC(=O)[C@H](C)NC(=O)[C@H](NC(=O)[C@H](C)NC(=O)CN)C(C)(C)C)C(C)(C)O)C(C)(C)C)C(C)(C)O)[C@@H](C)CC)C(C)(C)C)C(C)(C)O)C(=O)N[C@H](CC(=O)NC)C(=O)N[C@H](C(=O)N[C@H](CC(=O)NC)C(=O)N[C@@H](C)C(=O)N[C@H](CC(=O)NC)C(=O)N[C@H](C(=O)N[C@H](CO)C(=O)N[C@H](C(=O)N[C@H](CC(N)=O)C(=O)N[C@@H](Cc1cn(CCNS(=O)(=O)c2cccc3c(N(C)C)cccc23)nn1)C(=O)N[C@H](CC(N)=O)C(=O)N[C@@H](CCC(N)=O)C(=O)N[C@@H](C(=O)N[C@H](C(=O)O)[C@@H](C)O)[C@H](C)O)C(C)C)C(C)C)C(C)C`, the IC50 is more than 420 nM.

Turning to `CC[C@H](C)[C@H](NC(=O)[C@@H](CC(=O)NC)NC(=O)CNC(=O)[C@H](NC(=O)[C@@H](NC(=O)[C@@H](CC(=O)NC)NC(=O)[C@@H](NC(=O)[C@@H](CC(=O)NC)NC(=O)CNC(=O)CNC(=O)[C@H](C)NC(=O)[C@H](NC(=O)[C@H](CCC(=O)NC)NC(=O)[C@@H](CC(=O)NC)NC(=O)[C@@H](NC(=O)CNC(=O)[C@H](C)N)C(C)(C)C)C(C)(C)O)[C@@H](C)CC)C(C)(C)C)C(C)(C)O)C(=O)N[C@H](CC(=O)NC)C(=O)N[C@H](C(=O)N[C@H](CC(=O)NC)C(=O)N[C@@H](C)C(=O)N[C@H](CC(=O)NC)C(=O)N[C@H](C(=O)N[C@H](CO)C(=O)N[C@H](C(=O)N[C@H](CC(N)=O)C(=O)N[C@@H](Cc1cn(CCNS(=O)(=O)c2cccc3c(N(C)C)cccc23)nn1)C(=O)N[C@H](CC(N)=O)C(=O)N[C@@H](CCC(N)=O)C(=O)N[C@@H](C(=O)N[C@H](C(=O)O)[C@@H](C)O)[C@H](C)O)C(C)C)C(C)C)C(C)C`, the IC50 stood at 190 nM.

Turning to `CC[C@H](C)[C@H](NC(=O)[C@@H](CC(=O)NC)NC(=O)CNC(=O)[C@H](NC(=O)[C@@H](NC(=O)[C@@H](CC(=O)NC)NC(=O)[C@@H](NC(=O)[C@@H](CC(=O)NC)NC(=O)CNC(=O)CNC(=O)[C@H](C)NC(=O)[C@H](NC(=O)[C@H](CCC(=O)NC)NC(=O)[C@H](N)CC(=O)NC)C(C)(C)O)[C@@H](C)CC)C(C)(C)C)C(C)(C)O)C(=O)N[C@H](CC(=O)NC)C(=O)N[C@H](C(=O)N[C@H](CC(=O)NC)C(=O)N[C@@H](C)C(=O)N[C@H](CC(=O)NC)C(=O)N[C@H](C(=O)N[C@H](CO)C(=O)N[C@H](C(=O)N[C@H](CC(N)=O)C(=O)N[C@@H](Cc1cn(CCNS(=O)(=O)c2cccc3c(N(C)C)cccc23)nn1)C(=O)N[C@H](CC(N)=O)C(=O)N[C@@H](CCC(N)=O)C(=O)N[C@@H](C(=O)N[C@H](C(=O)O)[C@@H](C)O)[C@H](C)O)C(C)C)C(C)C)C(C)C`, the IC50 is more than 250 nM.

As to `CC[C@H](C)[C@H](NC(=O)[C@@H](CC(=O)NC)NC(=O)CNC(=O)[C@H](NC(=O)[C@@H](NC(=O)[C@@H](CC(=O)NC)NC(=O)[C@@H](NC(=O)[C@@H](CC(=O)NC)NC(=O)CNC(=O)CNC(=O)[C@H](C)NC(=O)[C@H](NC(=O)[C@H](CCC(=O)NC)NC(=O)[C@@H](CC(=O)NC)NC(=O)[C@@H](NC(=O)CNC(=O)[C@H](C)NC(=O)CNC(=O)[C@@H](NC(=O)[C@H](N)CC(=O)NC)C(C)(C)O)C(C)(C)C)C(C)(C)O)[C@@H](C)CC)C(C)(C)C)C(C)(C)O)C(=O)N[C@H](CC(=O)NC)C(=O)N[C@H](C(=O)N[C@H](CC(=O)NC)C(=O)N[C@@H](C)C(=O)N[C@H](CC(=O)NC)C(=O)N[C@H](C(=O)N[C@H](CO)C(=O)N[C@H](C(=O)N[C@H](CC(N)=O)C(=O)N[C@@H](Cc1cn(CCNS(=O)(=O)c2cccc3c(N(C)C)cccc23)nn1)C(=O)N[C@H](CC(N)=O)C(=O)N[C@@H](CCC(N)=O)C(=O)N[C@@H](C(=O)N[C@H](C(=O)O)[C@@H](C)O)[C@H](C)O)C(C)C)C(C)C)C(C)C`, the IC50 is more than 420 nM.

With `CC[C@H](C)[C@H](NC(=O)[C@@H](CC(=O)NC)NC(=O)CNC(=O)[C@H](NC(=O)[C@@H](NC(=O)[C@@H](CC(=O)NC)NC(=O)[C@@H](NC(=O)[C@@H](CC(=O)NC)NC(=O)CNC(=O)CNC(=O)[C@H](C)NC(=O)[C@H](NC(=O)[C@@H](N)CCC(=O)NC)C(C)(C)O)[C@@H](C)CC)C(C)(C)C)C(C)(C)O)C(=O)N[C@H](CC(=O)NC)C(=O)N[C@H](C(=O)N[C@H](CC(=O)NC)C(=O)N[C@@H](C)C(=O)N[C@H](CC(=O)NC)C(=O)N[C@H](C(=O)N[C@H](CO)C(=O)N[C@H](C(=O)N[C@H](CC(N)=O)C(=O)N[C@@H](Cc1cn(CCNS(=O)(=O)c2cccc3c(N(C)C)cccc23)nn1)C(=O)N[C@H](CC(N)=O)C(=O)N[C@@H](CCC(N)=O)C(=O)N[C@@H](C(=O)N[C@H](C(=O)O)[C@@H](C)O)[C@H](C)O)C(C)C)C(C)C)C(C)C`, the IC50 is more than 420 nM.
